Results from the NIST ThermoML archive (doi:10.1016/j.jct.2012.03.027).
Numbers after ± are expanded uncertainties.

How the values were obtained:
[1] = for vapor or sublimation pressure: Closed cell (Static) method; for Triple point temperature: DTA
[2] = Molar enthalpy of transition or fusion; conditions: Crystal; DSC
[3] = molar heat capacity at constant pressure; conditions: 298.15 K, 101.33 kPa, Drop calorimetry

With `OCC(F)(F)C(F)(F)C(F)(F)C(F)(F)C(F)(F)C(F)(F)C(F)(F)C(F)(F)C(F)(F)C(F)(F)F` [1H,1H-perfluoroundecan-1-ol] the “vapor or sublimation pressure” value ([1]; 310.53 K, Crystal) was 0.00219 ± 0.00014 kPa, the “vapor or sublimation pressure” value ([1]; 313.02 K, Crystal) was 0.00299 ± 0.00016 kPa and the “vapor or sublimation pressure” value ([1]; 315.51 K, Crystal) was 0.00402 ± 0.00019 kPa. The “vapor or sublimation pressure” value ([1]; 318 K, Crystal) was 0.00537 ± 0.00024 kPa, the “vapor or sublimation pressure” value ([1]; 320.48 K, Crystal) was 0.00715 ± 0.0003 kPa and the “vapor or sublimation pressure” value ([1]; 323 K, Crystal) was 0.00968 ± 0.00039 kPa. For the same molecule, the “vapor or sublimation pressure” value ([1]; 325.47 K, Crystal) was 0.01321 ± 0.00052 kPa, the “vapor or sublimation pressure” value ([1]; 327.95 K, Crystal) was 0.01724 ± 0.00058 kPa and the “vapor or sublimation pressure” value ([1]; 330.42 K, Crystal) was 0.02207 ± 0.00066 kPa. The “vapor or sublimation pressure” value ([1]; 332.87 K, Crystal) was 0.02909 ± 0.00076 kPa, the “vapor or sublimation pressure” value ([1]; 335.42 K, Crystal) was 0.03815 ± 0.0009 kPa and the “vapor or sublimation pressure” value ([1]; 337.85 K, Crystal) was 0.04977 ± 0.0011 kPa. The “vapor or sublimation pressure” value ([1]; 340.35 K, Crystal) was 0.06415 ± 0.0013 kPa, the “vapor or sublimation pressure” value ([1]; 342.81 K, Crystal) was 0.08275 ± 0.0016 kPa and the “vapor or sublimation pressure” value ([1]; 345.3 K, Crystal) was 0.1064 ± 0.002 kPa. The “vapor or sublimation pressure” value ([1]; 347.8 K, Crystal) was 0.1361 ± 0.0021 kPa, the Triple point temperature ([1]; Crystal) was 374 ± 0.9 K and the “Molar enthalpy of transition or fusion” value [2] was 5.35 ± 0.191 kcal/mol.
In the case of `OCC(F)(F)C(F)(F)C(F)(F)C(F)(F)C(F)(F)C(F)(F)C(F)(F)C(F)(F)F` [2,2,3,3,4,4,5,5,6,6,7,7,8,8,9,9,9-heptadecafluoro-1-nonanol], the “vapor or sublimation pressure” value ([1]; 275.71 K, Crystal) is reported as 0.00048 ± 0.0001 kPa, the “vapor or sublimation pressure” value ([1]; 278.17 K, Crystal) is reported as 0.00067 ± 0.0001 kPa and the “vapor or sublimation pressure” value ([1]; 283.16 K, Crystal) is reported as 0.00128 ± 0.00011 kPa. For the same molecule, the “vapor or sublimation pressure” value ([1]; 288.15 K, Crystal) was 0.0025 ± 0.00014 kPa, the “vapor or sublimation pressure” value ([1]; 293.14 K, Crystal) was 0.00477 ± 0.00021 kPa and the “vapor or sublimation pressure” value ([1]; 298.11 K, Crystal) was 0.00866 ± 0.00035 kPa. For the same molecule, the “vapor or sublimation pressure” value ([1]; 303.13 K, Crystal) was 0.01568 ± 0.00056 kPa, the “vapor or sublimation pressure” value ([1]; 308.1 K, Crystal) was 0.02727 ± 0.00073 kPa and the “vapor or sublimation pressure” value ([1]; 313.09 K, Crystal) was 0.04767 ± 0.001 kPa. The “vapor or sublimation pressure” value ([1]; 318.06 K, Crystal) was 0.07933 ± 0.0015 kPa, the “vapor or sublimation pressure” value ([1]; 323.03 K, Crystal) was 0.13 ± 0.002 kPa and the “vapor or sublimation pressure” value ([1]; 342.99 K, Liquid) was 0.8017 ± 0.0078 kPa. For the same molecule, the “vapor or sublimation pressure” value ([1]; 344 K, Liquid) was 0.8571 ± 0.0083 kPa, the “vapor or sublimation pressure” value ([1]; 345.48 K, Liquid) was 0.9447 ± 0.0091 kPa and the “vapor or sublimation pressure” value ([1]; 347.97 K, Liquid) was 1.11 ± 0.01 kPa. The “vapor or sublimation pressure” value ([1]; 350.45 K, Liquid) was 1.3 ± 0.012 kPa, the “vapor or sublimation pressure” value ([1]; 351.45 K, Liquid) was 1.383 ± 0.012 kPa and the Triple point temperature ([1]; Crystal) was 342.2 ± 0.9 K. The “Molar enthalpy of transition or fusion” value [2] was 3.97 ± 0.12 kcal/mol.
With `OCC(F)(F)C(F)(F)C(F)(F)C(F)(F)C(F)(F)C(F)(F)F` [2,2,3,3,4,4,5,5,6,6,7,7,7-tridecafluoro-1-heptanol] the “molar heat capacity at constant pressure” value ([3]; Liquid) was 476.8 ± 14 J/K/mol, the “vapor or sublimation pressure” value ([1]; 275.55 K, Liquid) was 0.01786 ± 0.00059 kPa and the “vapor or sublimation pressure” value ([1]; 278.02 K, Liquid) was 0.02308 ± 0.00067 kPa. For the same molecule, the “vapor or sublimation pressure” value ([1]; 280.53 K, Liquid) was 0.03001 ± 0.00078 kPa, the “vapor or sublimation pressure” value ([1]; 282.99 K, Liquid) was 0.03804 ± 0.0009 kPa and the “vapor or sublimation pressure” value ([1]; 285.49 K, Liquid) was 0.04858 ± 0.0011 kPa. The “vapor or sublimation pressure” value ([1]; 287.97 K, Liquid) was 0.06227 ± 0.0013 kPa, the “vapor or sublimation pressure” value ([1]; 290.46 K, Liquid) was 0.07837 ± 0.0015 kPa and the “vapor or sublimation pressure” value ([1]; 292.95 K, Liquid) was 0.09912 ± 0.0019 kPa. The “vapor or sublimation pressure” value ([1]; 295.45 K, Liquid) was 0.1247 ± 0.0022 kPa, the “vapor or sublimation pressure” value ([1]; 297.97 K, Liquid) was 0.1587 ± 0.0023 kPa and the “vapor or sublimation pressure” value ([1]; 300.43 K, Liquid) was 0.1946 ± 0.0025 kPa. The “vapor or sublimation pressure” value ([1]; 302.94 K, Liquid) was 0.2431 ± 0.0029 kPa, the “vapor or sublimation pressure” value ([1]; 305.4 K, Liquid) was 0.294 ± 0.0034 kPa and the “vapor or sublimation pressure” value ([1]; 307.91 K, Liquid) was 0.3632 ± 0.004 kPa. For the same molecule, the “vapor or sublimation pressure” value ([1]; 310.39 K, Liquid) was 0.4344 ± 0.0046 kPa, the “vapor or sublimation pressure” value ([1]; 312.88 K, Liquid) was 0.5339 ± 0.0055 kPa and the “vapor or sublimation pressure” value ([1]; 315.35 K, Liquid) was 0.6248 ± 0.0063 kPa. For the same molecule, the “vapor or sublimation pressure” value ([1]; 317.87 K, Liquid) was 0.7553 ± 0.0074 kPa.
In the case of `OCC(F)(F)C(F)(F)C(F)(F)C(F)(F)C(F)(F)C(F)(F)C(F)(F)C(F)(F)C(F)(F)F` [1H,1H-perfluoro-1-decanol], the “vapor or sublimation pressure” value ([1]; 303.92 K, Crystal) is reported as 0.00452 ± 0.00021 kPa, the “vapor or sublimation pressure” value ([1]; 308 K, Crystal) is reported as 0.00755 ± 0.00031 kPa and the “vapor or sublimation pressure” value ([1]; 312.98 K, Crystal) is reported as 0.01315 ± 0.00052 kPa. For the same molecule, the “vapor or sublimation pressure” value ([1]; 318.07 K, Crystal) was 0.02289 ± 0.00067 kPa, the “vapor or sublimation pressure” value ([1]; 323.07 K, Crystal) was 0.03765 ± 0.0009 kPa and the “vapor or sublimation pressure” value ([1]; 327.88 K, Crystal) was 0.06457 ± 0.0013 kPa. For the same molecule, the “vapor or sublimation pressure” value ([1]; 332.84 K, Crystal) was 0.1045 ± 0.0019 kPa, the “vapor or sublimation pressure” value ([1]; 337.79 K, Crystal) was 0.1714 ± 0.0024 kPa and the “vapor or sublimation pressure” value ([1]; 342.75 K, Crystal) was 0.2677 ± 0.0032 kPa. The “vapor or sublimation pressure” value ([1]; 347.71 K, Crystal) was 0.414 ± 0.0044 kPa, the “vapor or sublimation pressure” value ([1]; 352.65 K, Crystal) was 0.6247 ± 0.0063 kPa and the “vapor or sublimation pressure” value ([1]; 355.65 K, Crystal) was 0.8008 ± 0.0078 kPa. The “vapor or sublimation pressure” value ([1]; 358.15 K, Crystal) was 0.97 ± 0.0093 kPa, the Triple point temperature ([1]; Crystal) was 358.5 ± 1.1 K and the “Molar enthalpy of transition or fusion” value [2] was 3.8 ± 0.43 kcal/mol.
For `OCC(F)(F)C(F)(F)C(F)(F)C(F)(F)C(F)(F)C(F)(F)C(F)(F)F` [2,2,3,3,4,4,5,5,6,6,7,7,8,8,8-pentadecafluoro-1-octanol], the “molar heat capacity at constant pressure” value ([3]; Crystal) was 468.6 ± 14 J/K/mol, the “vapor or sublimation pressure” value ([1]; 268.27 K, Crystal) was 0.00104 ± 0.0001 kPa and the “vapor or sublimation pressure” value ([1]; 273.24 K, Crystal) was 0.00201 ± 0.00012 kPa. For the same molecule, the “vapor or sublimation pressure” value ([1]; 278.21 K, Crystal) was 0.00388 ± 0.00018 kPa, the “vapor or sublimation pressure” value ([1]; 283.17 K, Crystal) was 0.00714 ± 0.0003 kPa and the “vapor or sublimation pressure” value ([1]; 288.15 K, Crystal) was 0.01272 ± 0.00051 kPa. For the same molecule, the “vapor or sublimation pressure” value ([1]; 293.15 K, Crystal) was 0.02273 ± 0.00066 kPa, the “vapor or sublimation pressure” value ([1]; 295.64 K, Crystal) was 0.03033 ± 0.00078 kPa and the “vapor or sublimation pressure” value ([1]; 298.14 K, Crystal) was 0.03911 ± 0.00092 kPa. The “vapor or sublimation pressure” value ([1]; 300.61 K, Crystal) was 0.05177 ± 0.0011 kPa, the “vapor or sublimation pressure” value ([1]; 303.13 K, Crystal) was 0.06648 ± 0.0013 kPa and the “vapor or sublimation pressure” value ([1]; 305.62 K, Crystal) was 0.08724 ± 0.0017 kPa. The “vapor or sublimation pressure” value ([1]; 308.1 K, Crystal) was 0.1113 ± 0.002 kPa, the “vapor or sublimation pressure” value ([1]; 310.56 K, Crystal) was 0.1412 ± 0.0021 kPa and the “vapor or sublimation pressure” value ([1]; 313.08 K, Crystal) was 0.1815 ± 0.0024 kPa. For the same molecule, the “vapor or sublimation pressure” value ([1]; 315.52 K, Crystal) was 0.2288 ± 0.0028 kPa, the “vapor or sublimation pressure” value ([1]; 318.05 K, Crystal) was 0.2936 ± 0.0034 kPa and the “vapor or sublimation pressure” value ([1]; 320.52 K, Liquid) was 0.3615 ± 0.004 kPa. The “vapor or sublimation pressure” value ([1]; 323.01 K, Liquid) was 0.4351 ± 0.0046 kPa, the “vapor or sublimation pressure” value ([1]; 325.52 K, Liquid) was 0.524 ± 0.0054 kPa and the “vapor or sublimation pressure” value ([1]; 328.01 K, Liquid) was 0.6236 ± 0.0063 kPa. The “vapor or sublimation pressure” value ([1]; 330.49 K, Liquid) was 0.7457 ± 0.0073 kPa, the “vapor or sublimation pressure” value ([1]; 332.97 K, Liquid) was 0.871 ± 0.0084 kPa and the “vapor or sublimation pressure” value ([1]; 335.47 K, Liquid) was 1.048 ± 0.01 kPa. The “vapor or sublimation pressure” value ([1]; 337.97 K, Liquid) was 1.233 ± 0.012 kPa, the “vapor or sublimation pressure” value ([1]; 339.44 K, Liquid) was 1.359 ± 0.011 kPa and the Triple point temperature ([1]; Crystal) was 318.2 ± 1.1 K. The “Molar enthalpy of transition or fusion” value [2] was 2.84 ± 0.526 kcal/mol.
